From PMC11170206, “A novel fatty acid mimetic with pan-PPAR partial agonist activity inhibits diet-induced obesity and metabolic dysfunction-associated steatotic liver disease” (Molecular Metabolism, 2024)

Columns and labels:
Assay type in all cases: cell-based
PPARδ = target: T1, PPARδ (Mus musculus, UniProt P35396); assay: GAL4/UAS-luciferase reporter assay in transfected HEK293 cells, dose-response (partial agonist)
T1 construct: gene Ppard; GAL4-mPPARδ
T1 sequence (P35396 210-440 limits assumed): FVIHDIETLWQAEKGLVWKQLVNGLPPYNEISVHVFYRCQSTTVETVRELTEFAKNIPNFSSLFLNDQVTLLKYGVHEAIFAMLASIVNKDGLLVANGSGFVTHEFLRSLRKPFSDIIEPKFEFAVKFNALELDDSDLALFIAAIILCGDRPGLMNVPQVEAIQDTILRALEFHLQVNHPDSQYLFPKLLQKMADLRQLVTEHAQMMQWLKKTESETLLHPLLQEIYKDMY

PPARγ = target: T2, PPARγ (Mus musculus, UniProt P37238); assay: as above
T2 construct: gene Pparg; GAL4-mPPARγ
T2 sequence (P37238 1-505): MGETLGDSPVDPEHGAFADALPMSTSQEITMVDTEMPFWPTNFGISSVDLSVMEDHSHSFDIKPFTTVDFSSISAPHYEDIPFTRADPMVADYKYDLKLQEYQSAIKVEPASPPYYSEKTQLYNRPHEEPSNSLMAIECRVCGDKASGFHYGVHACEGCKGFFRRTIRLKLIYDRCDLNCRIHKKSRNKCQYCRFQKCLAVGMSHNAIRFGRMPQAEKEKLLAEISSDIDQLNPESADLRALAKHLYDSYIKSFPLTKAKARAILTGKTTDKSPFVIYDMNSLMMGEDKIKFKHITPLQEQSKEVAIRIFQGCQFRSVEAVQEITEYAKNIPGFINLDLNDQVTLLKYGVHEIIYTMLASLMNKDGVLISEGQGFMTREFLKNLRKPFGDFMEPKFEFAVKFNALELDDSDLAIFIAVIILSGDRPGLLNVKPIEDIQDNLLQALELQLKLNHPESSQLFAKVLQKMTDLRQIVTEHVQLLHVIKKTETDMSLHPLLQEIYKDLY

PPARα [1] = target: T3, PPARα (Mus musculus, UniProt P23204); assay: as above
T3 construct: gene Ppara; GAL4-mPPARα
T3 sequence (P23204 1-468): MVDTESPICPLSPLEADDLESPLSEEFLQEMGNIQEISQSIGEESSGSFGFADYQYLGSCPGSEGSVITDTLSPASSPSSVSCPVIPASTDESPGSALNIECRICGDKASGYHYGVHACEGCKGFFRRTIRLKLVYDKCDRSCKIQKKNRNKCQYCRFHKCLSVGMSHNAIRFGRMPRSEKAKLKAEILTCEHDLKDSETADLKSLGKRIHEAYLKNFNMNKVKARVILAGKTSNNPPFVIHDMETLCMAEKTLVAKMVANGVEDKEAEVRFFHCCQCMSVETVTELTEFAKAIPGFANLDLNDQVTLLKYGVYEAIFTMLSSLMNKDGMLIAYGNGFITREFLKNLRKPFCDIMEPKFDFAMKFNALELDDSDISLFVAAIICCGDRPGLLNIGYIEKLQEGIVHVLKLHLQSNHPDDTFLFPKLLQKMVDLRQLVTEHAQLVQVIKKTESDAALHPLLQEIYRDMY

PPARα [2] = target: T3, PPARα; assay: GAL4/UAS-luciferase reporter assay in transfected HEK293 cells, positive control agonist

| SMILES | EC50 (PPARδ) [nM] | EC50 (PPARγ) [nM] | EC50 (PPARα [1]) [nM] | GAL4/UAS-luciferase reporter assay in transfected HEK293 cells, positive control (PPARα [2]) |
| --- | --- | --- | --- | --- |
| CCCCCCCCCCCCCCCc1cccc(OC(C)(C)C(=O)O)c1 [LDT409] | 1000 | 100 | 100 |  |
| Cc1cccc(Nc2cc(Cl)nc(SCC(=O)O)n2)c1C [WY14643] |  |  |  | full dose–response curve comparing LDT409 against positive controls for each mouse PPAR (WY, PPARα agonist; |
